From article PMC8095338 (Neuro-oncology Advances, 2021)
Several values for one entry are separate records, joined by “and”; a condition that tells them apart may be missing. Equal entries are not always repeated. Where two headings read alike, the source gives them in different places.

Key:
Type in all cases: in vivo, minipig
Tissue PK, LC-MS/MS = details: for concentration at 2 h: po
Experimental: (§1) WT (n = 8) and NF1 (n = 8) minipigs received a single human equivalent oral dose of 450 mg (7.3 mg/kg). Untreated WT (n = 4) and NF1 (n = 4) minipigs were also enrolled as controls. All animals were euthanized 2 h after drug administration. Tissue samples were collected from each animal at the same approximate locations and divided for analysis.
Selumetinib PK studies were performed in plasma, skin, sciatic nerve, optic nerve, and brain. Plasma isolation was performed as described in a previous study.[13] […] Tissues were harvested and immediately transferred to cryovials and stored at −80°C until analysis.
Standard curves and controls were generated using corresponding untreated tissue. Skin tissue was treated with collagenase, and all organ tissues were homogenized. Liquid extraction with ethyl acetate was then performed, followed by analysis. […] The chromatographic separation was performed as described.[13] Mass spectrometric detection was performed using multiple reaction monitoring in positive ionization mode. […] Ion source gases 1 and 2 were set at 50 and 50 psi, respectively; the curtain gas was at 20 psi and the collision gas at 4 psi. […] Data acquisition was performed with analyst 1.4.1 software (MDS-SCIEX).

DUSP6 and FOS = experiment: Transcript biomarkers of MEK inhibition in tissues (RT-PCR); details: skin, sciatic nerve, optic nerve and cerebral cortex of all treated minipigs, 2 h after single oral 7.3 mg/kg
Experimental: as §1
For RNA profiling, tissues were homogenized using ceramic homogenizers (Agilent 5982–9311) and a Beadblaster 24 (Benchmark D2400) for 3 cycles of 30 s each. RNA was extracted from all tissues using the RNeasy Mini kit (QIAGEN 74104) and RNA concentration and quality was measured by NanoDrop (Thermo). Analysis of transcript biomarkers of MEK inhibition was performed using the Fluidigm platform by Reverse Transcription, preamplification with pooled primers and Real Time-PCR on the Juno and BioMark using the following pig TaqMan primers (DUSP6-Ss06941845_m1; FOS -Ss03390402_m1; normalized to the average of pig housekeeping genes (B2M/Ss03391154_m1; HPRT1/Ss03388274_m1; PPIA/Ss03394782_g1; RPL13A/Ss03376908_u1; UBC/Ss03374343_g1, TFRC/Ss03391240_m1). Data were then normalized to the average of the control untreated group from matching WT or NF1 background (Log2 fold change, -ddCt).

[1] = tested on: ERK phosphorylation (p-ERK); experiment: Tissue PD: p-ERK/ERK by capillary western (Wes); details: for inhibition at 7.3 mg/kg: Sus scrofa, po; for p-ERK Inhibition: ND = Not detected
Experimental: as §1
PD analysis in blood was performed as described in a previous study, with some modifications.[13] […] Samples were stimulated with phorbol 12-myristate 13-acetate (PMA) (200 nM) or phosphate-buffered saline for 10 min at 37°C within 1 h of being drawn. Red blood cells were removed using standard ammonium-chloride-potassium (ACK) lysis. Peripheral blood mononuclear cells (PBMCs) were snap-frozen as dry pellets and stored at −80°C until analysis. Protein lysates from PBMCs were prepared as described in a previous study.[13] For tissues, protein lysates were prepared by transferring ~[…] of snap frozen tissue to a 1.7-mL microfuge tube containing radioimmunoprecipitation lysis buffer with protease and phosphatase inhibitors. The samples were then homogenized using a rotor-stator homogenizer for 2–4 cycles of 20 s and centrifuged for 10 min at 4°C. Concentrations were measured using the Pierce BCA Protein assay kit (Thermo #23227), according to the manufacturer’s instructions. A capillary western blot assay was performed on a Wes system (ProteinSimple 004–600) according to the manufacturer’s instructions using a 12–230 kDa Separation Module (ProteinSimple SM-W004) and Anti-Rabbit Detection Module (ProteinSimple DM-001). Lysates were loaded at 1 mg/mL and instrument default settings were used. Primary antibodies against Phospho-p44/42 ERK1/2 (p-ERK) (Cell Signaling Technologies #4370S) and p44/42 ERK1/2 (ERK) (Cell Signaling Technologies #4695S) were used at 1:100 dilution. Peaks of the appropriate molecular weight (42/44 kilodaltons) were detected in the resulting electropherograms and chemiluminescent signal was quantified by calculating the area under the peaks. The relative intensity of p-ERK to total ERK was then calculated as a ratio (p-ERK/ERK). To discriminate low p-ERK signals from background, the peak signal-to-noise (S/N) ratio given by the software was ≥10, and the peak height/baseline ratio was ≥3.[27]

[2] = 2 h after single oral 7.3 mg/kg, P = .03
[3] = NF1 minipigs n = 8, 2 h after single oral 7.3 mg/kg
[4] = WT minipigs n = 8, 2 h after single oral 7.3 mg/kg
[5] = all 16 minipigs, 2 h after single oral 7.3 mg/kg
[6] = all 16 minipigs, 2 h after single oral 7.3 mg/kg, 7.3 mg/kg
[7] = individual NF1/F minipigs, 2 h after single oral 7.3 mg/kg, 7.3 mg/kg
[8] = individual NF1/M minipigs, 2 h after single oral 7.3 mg/kg, 7.3 mg/kg
[9] = individual WT/F minipigs, 2 h after single oral 7.3 mg/kg, 7.3 mg/kg
[10] = individual WT/M minipigs, 2 h after single oral 7.3 mg/kg, 7.3 mg/kg

## Cn1cnc2c(F)c(Nc3ccc(Br)cc3Cl)c(C(=O)NOCCO)cc21 [selumetinib]
Tissue PK, LC-MS/MS; [2]
  mean selumetinib concentration in cerebral cortex, NF1 compared to WT minipigs: higher
  mean selumetinib concentration in optic nerve, NF1 compared to WT minipigs: higher
Tissue PK, LC-MS/MS; [3]
  Selumetinib concentration in tissues, Cerebral cortex, Range (NF1): (20-105) ng/g
  Selumetinib concentration in tissues, Optic nerve, Range (NF1): (4-101) ng/g
  Selumetinib concentration in tissues, Sciatic nerve, Range (NF1): (5-36) ng/g
  Selumetinib concentration in tissues, Skin, Range (NF1): (14-155) ng/g
Tissue PK, LC-MS/MS; [4]
  Selumetinib concentration in tissues, Cerebral cortex, Range (WT): (15-76) ng/g
  Selumetinib concentration in tissues, Optic nerve, Range (WT): (7-46) ng/g
  Selumetinib concentration in tissues, Sciatic nerve, Range (WT): (6-51) ng/g
  Selumetinib concentration in tissues, Skin, Range (WT): (9-111) ng/g
Tissue PK, LC-MS/MS; [5]
  Selumetinib concentration in tissues, Cerebral cortex, Range (All): (15-105) ng/g
  Selumetinib concentration in tissues, Optic nerve, Range (All): (4-101) ng/g
  Selumetinib concentration in tissues, Sciatic nerve, Range (All): (5-51) ng/g
  Selumetinib concentration in tissues, Skin, Range (All): (9-155) ng/g
Tissue PK, LC-MS/MS; [6]
  Selumetinib concentration in tissues, Cerebral cortex, Median (All): 51 ng/g
  Selumetinib concentration in tissues, Optic nerve, Median (All): 36 ng/g
  Selumetinib concentration in tissues, Sciatic nerve, Median (All): 25 ng/g
  Selumetinib concentration in tissues, Skin, Median (All): 24 ng/g
Tissue PK, LC-MS/MS; [7]
  Selumetinib concentration in tissues, Cerebral cortex: 63 ng/g and 105 ng/g and 101 ng/g and 20 ng/g
  Selumetinib concentration in tissues, Optic nerve: 43 ng/g and 81 ng/g and 101 ng/g and 4 ng/g
  Selumetinib concentration in tissues, Sciatic nerve: 20 ng/g and 10 ng/g and 17 ng/g and 5 ng/g
  Selumetinib concentration in tissues, Skin: 36 ng/g and 155 ng/g and 14 ng/g and 17 ng/g
Tissue PK, LC-MS/MS; [8]
  Selumetinib concentration in tissues, Cerebral cortex: 67 ng/g and 83 ng/g and 28 ng/g and 64 ng/g
  Selumetinib concentration in tissues, Optic nerve: 59 ng/g and 34 ng/g
  Selumetinib concentration in tissues, Sciatic nerve: 36 ng/g and 33 ng/g
  Selumetinib concentration in tissues, Skin: 16 ng/g and 79 ng/g and 108 ng/g and 26 ng/g
Tissue PK, LC-MS/MS; [9]
  Selumetinib concentration in tissues, Cerebral cortex: 26 ng/g and 42 ng/g and 76 ng/g and 47 ng/g
  Selumetinib concentration in tissues, Optic nerve: 24 ng/g and 26 ng/g and 19 ng/g and 46 ng/g
  Selumetinib concentration in tissues, Sciatic nerve: 46 ng/g and 38 ng/g and 36 ng/g and 16 ng/g
  Selumetinib concentration in tissues, Skin: 22 ng/g and 111 ng/g and 81 ng/g and 12 ng/g
Tissue PK, LC-MS/MS; [10]
  Selumetinib concentration in tissues, Cerebral cortex: 20 ng/g and 15 ng/g and 54 ng/g and 44 ng/g
  Selumetinib concentration in tissues, Optic nerve: 35 ng/g and 7 ng/g and 32 ng/g and 36 ng/g
  Selumetinib concentration in tissues, Sciatic nerve: 6 ng/g and 9 ng/g and 51 ng/g and 15 ng/g
  Selumetinib concentration in tissues, Skin: 9 ng/g and 19 ng/g and 32 ng/g
Tissue PK, LC-MS/MS; male, minipig, optic nerve, 7.3 mg/kg, Selumetinib concentration in tissues, Optic nerve, individual NF1/M minipigs, 2 h after single oral 7.3 mg/kg
  concentration at 2 h: 43 ng/g
Tissue PK, LC-MS/MS; male, minipig, sciatic nerve, 7.3 mg/kg, Selumetinib concentration in tissues, Sciatic nerve, individual NF1/M minipigs, 2 h after single oral 7.3 mg/kg
  concentration at 2 h: 29 ng/g
Tissue PK, LC-MS/MS; minipig, brain / plasma, minipigs, single oral 7.3 mg/kg, read-out: median brain–plasma ratio
  Kp at 2 h: 0.1
Tissue PK, LC-MS/MS; minipig, cerebral cortex, 7.3 mg/kg, Selumetinib concentration in tissues, Cerebral cortex, Median (All), all 16 minipigs, 2 h after single oral 7.3 mg/kg
  concentration at 2 h: 66 ng/g
Tissue PK, LC-MS/MS; minipig, cerebral cortex, 7.3 mg/kg, Selumetinib concentration in tissues, Cerebral cortex, Median (NF1), NF1 minipigs n = 8, 2 h after single oral 7.3 mg/kg
  concentration at 2 h: 66 ng/g
Tissue PK, LC-MS/MS; minipig, cerebral cortex, 7.3 mg/kg, Selumetinib concentration in tissues, Cerebral cortex, Median (WT), WT minipigs n = 8, 2 h after single oral 7.3 mg/kg
  concentration at 2 h: 43 ng/g
Tissue PK, LC-MS/MS; minipig, optic nerve, 7.3 mg/kg, Selumetinib concentration in tissues, Optic nerve, Median (All), all 16 minipigs, 2 h after single oral 7.3 mg/kg
  concentration at 2 h: 43 ng/g
Tissue PK, LC-MS/MS; minipig, optic nerve, 7.3 mg/kg, Selumetinib concentration in tissues, Optic nerve, Median (NF1), NF1 minipigs n = 8, 2 h after single oral 7.3 mg/kg
  concentration at 2 h: 43 ng/g
Tissue PK, LC-MS/MS; minipig, optic nerve, 7.3 mg/kg, Selumetinib concentration in tissues, Optic nerve, Median (WT), WT minipigs n = 8, 2 h after single oral 7.3 mg/kg
  concentration at 2 h: 29 ng/g
Tissue PK, LC-MS/MS; minipig, 7.3 mg/kg, selumetinib concentration, range over all tissues, cerebral cortex, optic nerve, sciatic nerve, skin, all minipigs, 2 h after single oral 7.3 mg/kg
  concentration at 2 h: 4 to 155 ng/g
Tissue PK, LC-MS/MS; minipig, sciatic nerve, 7.3 mg/kg, Selumetinib concentration in tissues, Sciatic nerve, Median (All), all 16 minipigs, 2 h after single oral 7.3 mg/kg
  concentration at 2 h: 23 ng/g
Tissue PK, LC-MS/MS; minipig, sciatic nerve, 7.3 mg/kg, Selumetinib concentration in tissues, Sciatic nerve, Median (NF1), NF1 minipigs n = 8, 2 h after single oral 7.3 mg/kg
  concentration at 2 h: 25 ng/g
Tissue PK, LC-MS/MS; minipig, sciatic nerve, 7.3 mg/kg, Selumetinib concentration in tissues, Sciatic nerve, Median (WT), WT minipigs n = 8, 2 h after single oral 7.3 mg/kg
  concentration at 2 h: 26 ng/g
Tissue PK, LC-MS/MS; minipig, skin, 7.3 mg/kg, Selumetinib concentration in tissues, Skin, Median (All), all 16 minipigs, 2 h after single oral 7.3 mg/kg
  concentration at 2 h: 34 ng/g
Tissue PK, LC-MS/MS; minipig, skin, 7.3 mg/kg, Selumetinib concentration in tissues, Skin, Median (NF1), NF1 minipigs n = 8, 2 h after single oral 7.3 mg/kg
  concentration at 2 h: 56 ng/g
Tissue PK, LC-MS/MS; minipig, skin, 7.3 mg/kg, Selumetinib concentration in tissues, Skin, Median (WT), WT minipigs n = 8, 2 h after single oral 7.3 mg/kg
  concentration at 2 h: 21 ng/g
DUSP6 and FOS
  DUSP6 transcript expression: downregulated
  FOS transcript expression: downregulated
[1]; 2 h, NF1 minipigs, cerebral cortex, 2 h after single oral 7.3 mg/kg, vs untreated controls, change not significant, read-out: p-ERK Inhibition
  inhibition at 7.3 mg/kg: 71%
[1]; 2 h, NF1 minipigs, optic nerve, 2 h after single oral 7.3 mg/kg, vs untreated controls, read-out: p-ERK Inhibition
  inhibition at 7.3 mg/kg: 60%
[1]; 2 h, NF1 minipigs, sciatic nerve, 2 h after single oral 7.3 mg/kg, vs untreated controls, read-out: p-ERK Inhibition
  inhibition at 7.3 mg/kg: 60%
[1]; 2 h, WT minipigs, sciatic nerve, 2 h after single oral 7.3 mg/kg, vs untreated controls, read-out: p-ERK Inhibition
  inhibition at 7.3 mg/kg: 67%
[1]; 2 h, all minipigs (WT and NF1), 2 h after single oral 7.3 mg/kg, read-out: mean inhibition of p-ERK in sciatic nerve
  inhibition at 7.3 mg/kg: 64%
[1]; 2 h, all minipigs (WT and NF1), 2 h after single oral 7.3 mg/kg, read-out: mean inhibition of p-ERK in skin
  inhibition at 7.3 mg/kg: 95%
[1]; WT minipigs, cerebral cortex (subcortical white matter), 2 h after single oral 7.3 mg/kg, vs untreated controls
  p-ERK Inhibition: not observed
[1]; WT minipigs, optic nerve, 2 h after single oral 7.3 mg/kg, vs untreated controls
  p-ERK Inhibition: not observed
[1]; all minipigs (WT and NF1), 2 h after single oral 7.3 mg/kg, 7.3 mg/kg
  mean inhibition of p-ERK in skin: 94%
[1]; all minipigs, single oral 7.3 mg/kg, 2 h, compared to untreated minipigs
  p-ERK level in skin after selumetinib: nearly undetectable levels
